Reference: ChEMBL document CHEMBL1132835, “Solid-phase synthesis of 2,3-disubstituted indoles: discovery of a novel, high-affinity, selective h5-HT2A antagonist” (Bioorg Med Chem Lett, 2000)

Target: 5-hydroxytryptamine receptor 2A (Homo sapiens, UniProt P28223)
Assay: Ability to displace [3H]ketanserin from CHO cells expressing human 5-hydroxytryptamine 2A receptor was determined
Assay type: cell-based

5-hydroxytryptamine receptor 2A, sequence (P28223 whole entry): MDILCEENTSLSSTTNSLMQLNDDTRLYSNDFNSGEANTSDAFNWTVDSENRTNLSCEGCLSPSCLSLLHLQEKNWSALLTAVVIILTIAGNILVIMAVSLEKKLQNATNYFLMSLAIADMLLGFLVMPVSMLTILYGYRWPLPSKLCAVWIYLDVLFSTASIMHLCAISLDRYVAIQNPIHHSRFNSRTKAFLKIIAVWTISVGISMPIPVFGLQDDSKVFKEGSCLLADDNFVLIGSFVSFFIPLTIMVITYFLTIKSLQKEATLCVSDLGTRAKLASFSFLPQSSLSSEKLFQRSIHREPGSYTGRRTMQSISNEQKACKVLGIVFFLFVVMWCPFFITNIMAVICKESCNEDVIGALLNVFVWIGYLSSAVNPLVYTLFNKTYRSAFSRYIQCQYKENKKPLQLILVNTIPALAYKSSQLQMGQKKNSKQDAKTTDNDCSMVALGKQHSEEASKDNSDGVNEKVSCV

c1ccc(-c2[nH]c3ccccc3c2CCN2CCCCC2)cc1
Ki: 2.7 nM
